Test results reported in patent publication US12398107B2, “Fungicidal nitroanilino substituted pyrazoles” (FMC Corporation, priority 2018, dated 2025).

Key:
Format in all cases: in vivo
Septoria tritici = experiment: Test A: wheat leaf blotch, preventive spray on wheat seedlings; settings: 100 = 100% disease control, 0 = no control relative to controls; for pest or weed control at 50 ppm / Test A disease control rating (wheat leaf blotch): 50 ppm
Method in brief: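 Compounds were suspended in acetone/water (50/50) with 250 ppm PEG400 and sprayed to run-off on wheat seedlings. The next day the seedlings were inoculated with Septoria tritici spores, held 48 h at 24 °C in saturated humidity, then 17 days at 20 °C. Disease control was rated 0–100 relative to controls.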

[1] = system: Puccinia recondita f. sp. tritici; experiment: Test B: wheat leaf rust, preventive spray on wheat seedlings; settings: 100 = 100% disease control, 0 = no control relative to controls; for pest or weed control at 50 ppm / Test B disease control rating (wheat leaf rust): 50 ppm
Method in brief: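 Compounds in acetone/water (50/50) with 250 ppm PEG400, sprayed to run-off on wheat seedlings at stated ppm; inoculated next day with P. recondita spores. Held 24 h saturated at 20° C., then 7 days in growth chamber at 20° C.; rating 0–100 = % disease control vs controls.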

[2] = system: Blumeria graminis f. sp. tritici; experiment: Test C: wheat powdery mildew, preventive spray on wheat seedlings; settings: rated after 8 days, 100 = 100% disease control, 0 = no control; for pest or weed control at 50 ppm / Test C disease control rating (wheat powdery mildew): 50 ppm
Method in brief: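 Compound dissolved in acetone (3% of final volume), then suspended in 50/50 acetone/water with 250 ppm PEG400 and sprayed to run-off on wheat seedlings. Inoculated next day with B. graminis f. sp. tritici spore dust, kept 8 days at 20° C; visual rating, 100 = full control, 0 = none, relative to controls.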

Phakopsora pachyrhizi = experiment: Test D: Asian soybean rust, preventive spray on soybean seedlings; settings: 100 = 100% disease control, 0 = no control; for pest or weed control at 50 ppm / Test D disease control rating (Asian soybean rust): 50 ppm
Method in brief: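 Soybean seedlings sprayed to run-off with compound suspension (ppm, in 50/50 acetone/water with 250 ppm PEG400), inoculated next day with P. pachyrhizi spores, held 24 h saturated at 22°C then 8 days at 22°C. Visual rating 0-100% disease control relative to controls.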

Botrytis cinerea = experiment: Test E: tomato Botrytis, preventive spray on tomato seedlings; settings: 100 = 100% disease control, 0 = no control; for pest or weed control at 50 ppm / Test E disease control rating (tomato Botrytis): 50 ppm
Method in brief: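 Tomato seedlings sprayed to run-off with compound (ppm) in acetone/water with 250 ppm PEG400, then inoculated next day with B. cinerea spores. Held 48 h at 20 °C in saturated atmosphere, then 3 days at 24 °C. Visual rating 0–100% disease control relative to untreated controls.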

Alternaria solani = experiment: Test F: tomato early blight, preventive spray on tomato seedlings; settings: 100 = 100% disease control, 0 = no control; for pest or weed control at 50 ppm / Test F disease control rating (tomato early blight): 50 ppm
Method in brief: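 Compounds in acetone/water (50/50) with 250 ppm PEG400, dosed in ppm, sprayed to run-off on tomato seedlings; next day inoculated with A. solani spores. Held 48 h saturated at 27° C, then 3 days at 20° C; visual rating 0–100% disease control relative to controls.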

[3] = Zymoseptoria tritici, read-out: Test A disease control rating (wheat leaf blotch)
[4] = read-out: Test B disease control rating (wheat leaf rust)
[5] = Blumeria graminis, 192 h, read-out: Test C disease control rating (wheat powdery mildew)
[6] = Phakopsora pachyrhizi, read-out: Test D disease control rating (Asian soybean rust)
[7] = Botrytis cinerea, read-out: Test E disease control rating (tomato Botrytis)
[8] = Alternaria solani, read-out: Test F disease control rating (tomato early blight)

Structure (SMILES) | pest or weed control at 50 ppm (Septoria tritici; [3]) | pest or weed control at 50 ppm [1, 4] | pest or weed control at 50 ppm [2, 5] | pest or weed control at 50 ppm (Phakopsora pachyrhizi; [6]) | pest or weed control at 50 ppm (Botrytis cinerea; [7]) | pest or weed control at 50 ppm (Alternaria solani; [8]) | Test A disease control rating (wheat leaf blotch) (Septoria tritici) | Test B disease control rating (wheat leaf rust) [1] | Test C disease control rating (wheat powdery mildew) [2] | Test D disease control rating (Asian soybean rust) (Phakopsora pachyrhizi) | Test E disease control rating (tomato Botrytis) (Botrytis cinerea) | Test F disease control rating (tomato early blight) (Alternaria solani) | pest or weed control at 10 ppm (Septoria tritici; Zymoseptoria tritici, 10 ppm, read-out: Test A disease control rating (wheat leaf blotch)) | pest or weed control at 10 ppm ([1]; 10 ppm, read-out: Test B disease control rating (wheat leaf rust)) | pest or weed control at 10 ppm ([2]; Blumeria graminis, 192 h, 10 ppm, read-out: Test C disease control rating (wheat powdery mildew)) | pest or weed control at 10 ppm (Phakopsora pachyrhizi; Phakopsora pachyrhizi, 10 ppm, read-out: Test D disease control rating (Asian soybean rust)) | pest or weed control at 10 ppm (Botrytis cinerea; Botrytis cinerea, 10 ppm, read-out: Test E disease control rating (tomato Botrytis)) | pest or weed control at 10 ppm (Alternaria solani; Alternaria solani, 10 ppm, read-out: Test F disease control rating (tomato early blight))
Cc1nn(C)c(Nc2c(Cl)cc(F)cc2[N+](=O)[O-])c1-c1ccc(F)cc1Cl [Compound 19, N-(2-chloro-4-fluoro-6-nitrophenyl)-4-(2-chloro-4-fluorophenyl)-1,3-dimethyl-1H-pyrazol-5-amine] | 100% | 100% | 100% | 98% | 100% | 99% |  |  |  |  |  |  |  |  |  |  |  | 
Cc1nn(C)c(Nc2c(F)cc(Br)cc2[N+](=O)[O-])c1-c1ccc(F)cc1Cl [Compound 61, N-(4-bromo-2-fluoro-6-nitrophenyl)-4-(2-chloro-4-fluorophenyl)-1,3-dimethyl-1H-pyrazol-5-amine] | 100% | 100% | 99% | 84% | 99% | 99% |  |  |  |  |  |  |  |  |  |  |  | 
Cc1cc(Cl)c(Nc2c(-c3ccc(F)cc3Br)c(C)nn2C)c([N+](=O)[O-])c1 [Compound 181] |  |  |  |  |  |  | 100% | 100% | 99% | 78% | 99% | 99% |  |  |  |  |  | 
Cc1nn(C)c(Nc2c(F)cc(Br)cc2[N+](=O)[O-])c1-c1ccc(Cl)cc1Cl [Compound 132] |  |  |  |  |  |  | 100% | 98% | 47% | 0% | 99% | 96% |  |  |  |  |  | 
Cc1cc(F)c(Nc2c(-c3ccc(Cl)cc3Cl)c(C)nn2C)c([N+](=O)[O-])c1 [Compound 143] |  |  |  |  |  |  | 99% | 100% | 96% | 87% | 99% | 100% |  |  |  |  |  | 
Cc1nn(C)c(Nc2cccc(Cl)c2[N+](=O)[O-])c1-c1ccc(F)cc1Cl [Compound 34] |  |  |  |  |  |  | 100% | 54% | 13% | 0% | 71% | 0% |  |  |  |  |  | 
Cc1nn(C)c(Nc2c([N+](=O)[O-])ccc(F)c2F)c1-c1ccc(F)cc1Cl [Compound 7] |  |  |  |  |  |  | 100% | 99% | 94% | 96% | 99% | 89% |  |  |  |  |  | 
Cc1nn(C)c(Nc2c(F)cc(Cl)cc2[N+](=O)[O-])c1-c1ccc(Cl)cc1Cl [Compound 11] |  |  |  |  |  |  | 100% | 98% | 97% | 0% | 98% | 99% |  |  |  |  |  | 
Cc1nn(C)c(Nc2ccccc2[N+](=O)[O-])c1-c1c(F)cccc1F [Compound 135] |  |  |  |  |  |  | 100% | 68% | 93% | 0% | 99% | 0% |  |  |  |  |  | 
C#CCOc1ccc(Nc2c(-c3ccc(F)cc3Cl)c(C)nn2C)c([N+](=O)[O-])c1 [Compound 5] |  |  |  |  |  |  | 97% | 86% | 76% | 19% | 95% | 0% |  |  |  |  |  | 
COc1ccc(-c2c(C)nn(C)c2Nc2c(Cl)cccc2[N+](=O)[O-])c(Cl)c1 [Compound 184] |  |  |  |  |  |  | 100% | 100% | 21% | 0% | 100% | 26% |  |  |  |  |  | 
COc1cc(F)c(Nc2c(-c3ccc(F)cc3Br)c(C)nn2C)c([N+](=O)[O-])c1 [Compound 165] |  |  |  |  |  |  | 99% | 100% | 98% | 94% | 100% | 100% |  |  |  |  |  | 
COc1cc(F)c(-c2c(C)nn(C)c2Nc2c(Cl)cc(Cl)cc2[N+](=O)[O-])c(F)c1 [Compound 82] |  |  |  |  |  |  | 100% | 100% | 58% | 59% | 96% | 97% |  |  |  |  |  | 
Cc1ccc(Nc2c(-c3ccc(F)cc3Cl)c(C)nn2C)c([N+](=O)[O-])c1 [Compound 26] |  |  |  |  |  |  | 100% | 99% | 94% | 77% | 100% | 68% |  |  |  |  |  | 
Cc1nn(C)c(Nc2c(F)cc(Cl)cc2[N+](=O)[O-])c1-c1ccc(C#N)cc1Cl [Compound 115] |  |  |  |  |  |  | 100% | 100% | 94% | 77% | 99% | 99% |  |  |  |  |  | 
Cc1nn(C)c(Nc2c(F)cccc2[N+](=O)[O-])c1-c1c(F)cc(F)cc1Cl [Compound 68, 4-(2-chloro-4,6-difluorophenyl)-N-(2-fluoro-6-nitrophenyl)-1,3-dimethyl-1H-pyrazol-5-amine] | 100% | 100% | 100% | 99% | 100% | 99% |  |  |  |  |  |  | 100% | 100% | 96% | 32% | 100% | 98%
Cc1nn(C)c(Nc2c(Cl)cccc2[N+](=O)[O-])c1-c1ccc(F)cc1F [Compound 79] |  |  |  |  |  |  | 100% | 100% | 91% | 44% | 98% | 0% |  |  |  |  |  | 
Cc1nn(C)c(N(C)c2c(F)cccc2[N+](=O)[O-])c1-c1ccc(F)cc1Cl [Compound 172] | 100% | 100% | 100% | 0% | 99% | 40% |  |  |  |  |  |  |  |  |  |  |  | 
